Test results published in article PMC6958329, “New ^55Co-labeled Albumin-Binding Folate Derivatives as Potential PET Agents for Folate Receptor Imaging” (Pharmaceuticals, 2019).

Legend:
[1] = parameters: method as in PMID 18246556, doi:10.1016/S0277-5387(99)00369-1, doi:10.1351/pac200577081445; settings: remaining carboxylic acid O of DOTA in the Co(II) complex; cited from earlier work
FR-expressing KB cells = assay: Cell binding and internalization in KB cells; type: cell-based, human; settings: for uptake blocked by co-incubation with folic acid: 0.7 mM folic acid
Protocol: Cellular assays were performed using the human cervical cancer KB cell line, which was cultured in folate-deficient cell media prior to use. The ^55Co-labeled folates were incubated with FR-expressing KB cells to determine total uptake (i.e., all cell-associated activity, both surface-bound and internalized) and the internalized fraction. To determine whether uptake was receptor-mediated, some cells were co-incubated with folic acid, which binds to FRs with high affinity to act as a blocking agent. […] The uptake profiles for both of the tested radiofolates were similar to each other and more similar to the previously reported [^68Ga]Ga-rf42 complex, in contrast to [^64Cu]Cu-rf42 [14]. In the case of [^55Co]Co-cm10, 26% of the total uptake was internalized with 95% of the uptake blocked by co-incubation of the cells with 0.7 mM of folic acid (Figure 3).
The human cervical cancer cell line KB (CCL-17) was purchased from ATCC (Manassas, VA, USA) and cells were cultured in Gibco folate-deficient RPMI 1640 growth medium (FFRPMI, Thermo Scientific, Waltham, MA, USA) supplemented with 10% fetal bovine serum, and Gibco 1% Antibiotic-Antimycotic. Cells were cultured following standard procedures and were incubated at 37 °C in a 5% CO2 environment and harvested using Gibco 0.25% trypsin-EDTA.
Cell internalization was performed similarly to a previously published procedure. KB cells were harvested, washed with supplemented FFRPMI, and resuspended in supplemented FFRPMI at a final concentration of 1 × 10^5 cells/mL for seeding. In […], 1 mL of the cell mixture was added to each well, and the plates were incubated overnight to allow for adhesion and growth. The following morning, the radiofolates were prepared at molar activities of 331.7 MBq/μmol (9.0 mCi/µmol) [^55Co]Co-cm10 and 299.5 MBq/μmol (8.1 mCi/μmol) in 50 μL final volume and then diluted in supplement free FFRPMI (either with or without 1 mM folic acid) to a final volume of 1 mL/well. The plates were collected, the supernatants discarded, and 1 mL of the dilute radiofolates in media was added to each well (n = 4 for each condition). […] The stripping buffer and lysed cell fractions were collected separately and counted using an automatic gamma counter.
The lysed cell fractions in NaOH were saved, and the total protein concentration for each sample was determined using a Pierce Micro BCA Protein Assay kit (Thermo Scientific, Waltham, MA, USA). The samples were vortexed vigorously prior to assaying, and were analyzed without further dilution. The results were used to normalize the measured radioactivity to the average protein content in each well.

Row | Compound | pKa [1] | fraction of total uptake internalized (FR-expressing KB cells) | uptake blocked by co-incubation with folic acid (FR-expressing KB cells)
1 | Nc1nc2ncc(CNc3ccc(C(=O)N[C@@H](CCC(=O)NC(CCCCNC(=O)CN4CCN(CC(=O)O)CCN(CC(=O)O)CCN(CC(=O)O)CC4)C(=O)NC(CCCCNC(=O)CCCc4ccc(I)cc4)C(=O)O)C(=O)O)cc3)nc2c(=O)[nH]1.[55Co] (some centres unmarked) [[^55Co]Co-cm10] | 4.04 | 26% | 95%
2 | Nc1nc2ncc(CNc3ccc(C(=O)N[C@@H](CCC(=O)NC(CCCCNC(=O)CCC(C(=O)O)N4CCN(CC(=O)O)CCN(CC(=O)O)CC4)C(=O)NC(CCCCNC(=O)CCCc4ccc(I)cc4)C(=O)O)C(=O)O)cc3)nc2c(=O)[nH]1.[55Co] (some centres unmarked) [[^55Co]Co-rf42] |  | 24% | 97%
